In US20100273189A1, “NON SEPARATION ASSAYS WITH SELECTIVE SIGNAL INHIBITORS” (BECKMAN COULTER, INC., priority 2009, published 2010):

How the values were obtained:
Assay type in all cases: biochemical
cTnI [1] = test: Comparison of particle types in cTnI assay, with and without ascorbic acid; details: 150 μM ascorbic acid; each particle system; highest calibrator level; in words
Description: Signal generation with Silica and PMMA particles. A comparison of Dynal M-280, 3 um CML, 6 um CML, PMMA, silica and LodeStars particles was conducted using the cTnI assay described above. The preparation of each particle, bearing a coating of streptavidin, is described in the foregoing examples. Ascorbic acid, when present, was at 150 μM.

cTnI [2] = test: cTnI assay with various magnetic particles, without and with ascorbic acid 150 μM
From the text: The effectiveness of ascorbic acid in improving assay performance in microparticle formats was investigated using a cTnI analyte with various magnetic particles. Magnetic particles evaluated included LodeStars PMP, latex PMP and carboxylate-modified polystyrene latex PMP. “Lot B Magnetic Particle” are 6.2 μm diameter carboxyl PMPs (Bangs Laboratories, Fishers, Ind.). “Lot D Magnetic Particle” are 8.1 μm diameter carboxyl PMPs (Bangs Laboratories). “Lot F Latex Particle” are 3.1 μm diameter carboxyl PMPs (Seradyn Products, Thermo-Fisher, Indianapolis, Ind.). “CML PMP” are […] diameter carboxylate modified latex particles (Invitrogen, Carlsbad, Calif.). LodeStars PMP were labeled with AK4 and biotin by EDC coupling and overcoated with streptavidin following the general protocol of Example 3. Lots B, D, and F and CML PMP were labeled with AK-BSA-biotin according to Example 1. The particles were then coated with streptavidin and bound to biotin-labeled anti-cTnI.
In an initial experiment, the cTnI assay was conducted without ascorbic acid in the reaction mix.
In this case, LodeStars particles retain much more specific signal than the other particle types, even while the background decreases almost […].

biotin-HRP = test: Effect of ascorbic acid incubation time on chemiluminescence, Dynal M-280 biotin-HRP system; details: incubation time 80-330 seconds; ascorbic acid 0-200 μM; in words
Description: The effect of the length of time that a sample is exposed to ascorbic acid on the observed reduction of chemiluminescence intensity was investigated in a series of experiments employing the Dynal M-280 PMP particles and biotin-HRP system described in Example 11. Briefly, biotin-labeled PMPs, and various biotin-HRP/HRP solutions were allowed to bind and ascorbic acid solutions added. After a delay period ranging from 80-330 seconds, trigger solution A was injected and the chemiluminescence intensity integrated. The biotin-HRP/HRP solutions contained a total of 200 ng/mL HRP in the proportion 1:200, 8:192, and 32:168 biotin-HRP:HRP. Trials were run using various concentrations of ascorbic acid as the Sample in water at 0, 25, 50 100 and 200 μM.

Compound: O=C1O[C@H]([C@@H](O)CO)C(O)=C1O [Ascorbic Acid, Ascorbic acid]
- S/S0 (cTnI [1]): markedly improved S/S0
- background decrease (cTnI [2]; ascorbic acid 150 μM prior to addition of trigger, LodeStars particles): ~300%
- assay sensitivity (cTnI [2]; ascorbic acid in the assay reaction mixture, in words): significantly improves the assay sensitivity
- effect of ascorbic acid incubation time on observed chemiluminescence (biotin-HRP): does not appear to cause a significant effect
